Tests used:
[1] = test system: pigweed, palmer; experiment: Test F preemergence; type: in vivo, Amaranthus palmeri
Text: (§1) Seeds of plant species selected from corn (Zea mays), soybean (Glycine max), velvetleaf (Abutilon theophrasti), lambsquarters (Chenopodium album), wild poinsettia (Euphorbia heterophylla), pigweed, palmer (palmer pigweed, Amaranthus palmeri), common waterhemp (Amaranthus rudis), surinam grass (Brachiaria decumbens), large crabgrass (Digitaria sanguinalis), crabgrass, Brazil (Brazilian crabgrass, Digitaria horizontalis), fall panicum (Panicum dichotomiflorum), giant foxtail (Setaria faberii), green foxtail (Setaria viridis), goosegrass (Eleusine indica), johnsongrass (Sorghum halepense), common ragweed (Ambrosia elation), barnyardgrass (Echinochloa crus-galli), southern sandbur (Cenchrus echinatus), arrowleaf sida (Sida rhombifolia), Italian ryegrass (Lolium multiflorum), dayflower, VA (Virginia (VA) dayflower, Commelina virginica), field bindweed (Convolvulus arvensis), cocklebur (common cocklebur, Xanthium strumarium), morningglory (Ipomoea coccinea), nightshade (eastern black nightshade, Solanum ptycanthum), kochia (Kochia scoparia), yellow nutsedge (Cyperus esculentus), and hairy beggarticks (Bidens pilosa), were planted into a silt loam soil and treated preemergence with test chemicals formulated in a non-phytotoxic solvent mixture which included a surfactant.
(§2) At the same time, plants from these crop and weed species and also horseweed (Canada horseweed, Conyza canadensis), smartweed (ladysthumb smartweed, Polygonum persicaria), waterhemp_RES1, (ALS & Triazine resistant common waterhemp, Amaranthus rudis), and waterhemp_RES2, (ALS & HPPD resistant common waterhemp, Amaranthus rudis) were treated with postemergence applications of test chemicals formulated in the same manner. Plants ranged in height from 2 to 18 cm for postemergence treatments (1- to 4-leaf stage). Treated plants and controls were maintained in a greenhouse for 14 to 21 days, after which time all species were compared to controls and visually evaluated. Plant response ratings, summarized in Table F, are based on a scale of 0 to 100 where 0 is no effect and 100 is complete control. A dash (-) response means no test result.

[2] = test system: goosegrass; experiment: Test F preemergence; type: in vivo, Eleusine indica
Text: as §1, §2

[3] = test system: morningglory; experiment: Test F preemergence; type: in vivo, Ipomoea coccinea
Text: as §1, §2

[4] = test system: nightshade; experiment: Test F preemergence; type: in vivo, Solanum ptycanthum
Text: as §1, §2

[5] = test system: blackgrass; experiment: Test D preemergence; type: in vivo, Alopecurus myosuroides; settings: scale 0 to 100
Text: (§3) Seeds of plant species selected from bluegrass (annual bluegrass, Poa annua), blackgrass (Alopecurus myosuroides), canarygrass (littleseed canarygrass, Phalaris minor), chickweed (common chickweed, Stellaria media), galium (catchweed bedstraw, Galium aparine), bromegrass, downy (downy bromegrass, Bromus tectorum), field poppy (Papaver rhoeas), field violet (Viola arvensis), foxtail, green (green foxtail, Setaria viridis), deadnettle (henbit deadnettle, Lamium amplexicaule), ryegrass, Italian (Italian ryegrass, Lolium multiflorum), kochia (Kochia scoparia), lambsquarters (Chenopodium album), oilseed rape (Brassica napus), pigweed (redroot pigweed, Amaranthus retroflexus), chamomile (scentless chamomile, Matricaria inodora), speedwell (bird's-eye speedwell, Veronica persica), barley, spring (spring barley, Hordeum vulgare), wheat, spring (spring wheat, Triticum aestivum), buckwheat, wild (wild buckwheat, Polygonum convolvulus), mustard, wild (wild mustard, Sinapis arvensis), oat, wild (wild oat, Avena fatua), radish, wild (wild radish, Raphanus raphanistrum), windgrass (Apera spica-venti), Russian thistle (Salsola kali), barley, winter (winter barley, Hordeum vulgare), and wheat, winter (winter wheat, Triticum aestivum) were planted into a silt loam soil and treated preemergence with test chemicals formulated in a non-phytotoxic solvent mixture which included a surfactant.
(§4) At the same time, these species were planted in pots containing Redi-Earth® planting medium (Scotts Company, 14111 Scottslawn Road, Marysville, Ohio 43041) comprising spaghnum peat moss, vermiculite, wetting agent and starter nutrients and treated with postemergence applications of the test chemicals formulated in the same manner. Plants ranged in height from 2 to 18 cm (1- to 4-leaf stage). Treated plants and controls were maintained in a controlled growth environment for 14 to 21 days after which time all species were compared to controls and visually evaluated. Plant response ratings, summarized in Table D, are based on a scale of 0 to 100 where 0 is no effect and 100 is complete control. A dash (-) response means no test result.

[6] = test system: foxtail, green; experiment: Test D preemergence; type: in vivo, Setaria viridis; settings: scale 0 to 100
Text: as §3, §4

[7] = test system: wheat, spring; experiment: Test D preemergence; type: in vivo, Triticum aestivum; settings: scale 0 to 100
Text: as §3, §4

[8] = test system: wheat, winter; experiment: Test D preemergence; type: in vivo, Triticum aestivum; settings: scale 0 to 100
Text: as §3, §4

[9] = test system: bluegrass; experiment: Test D postemergence; type: in vivo, Poa annua; settings: scale 0 to 100
Text: as §3, §4

[10] = test system: kochia; experiment: Test D postemergence; type: in vivo, Kochia scoparia; settings: scale 0 to 100
Text: as §3, §4

[11] = test system: oilseed rape; experiment: Test D postemergence; type: in vivo, Brassica napus; settings: scale 0 to 100
Text: as §3, §4

[12] = test system: speedwell; experiment: Test D postemergence; type: in vivo, Veronica persica; settings: scale 0 to 100
Text: as §3, §4

[13] = test system: barley, spring; experiment: Test D postemergence; type: in vivo, Hordeum vulgare; settings: scale 0 to 100
Text: as §3, §4

[14] = test system: barley, winter; experiment: Test D postemergence; type: in vivo, Hordeum vulgare; settings: scale 0 to 100
Text: as §3, §4

[15] = Preemergence, 250 g ai/ha, scale 0 to 100
[16] = Preemergence, 62 g ai/ha, scale 0 to 100
[17] = Preemergence, 125 g ai/ha, scale 0 to 100
[18] = preemergence, 16 g ai/ha, scale 0 to 100, 100 is complete control
[19] = Preemergence, 16 g ai/ha, scale 0 to 100
[20] = Preemergence, 31 g ai/ha, scale 0 to 100
[21] = preemergence, 8 g ai/ha, scale 0 to 100, 100 is complete control

SMILES: CCc1cc(C(=O)NC2CC2)nn1Cc1ccnc(OCC(F)(F)F)c1 [Compound 200]
- Plant response rating, Pigweed, Palmer [1, 15]: 85
- Plant response rating, Pigweed, Palmer [1, 16]: 0
- Plant response rating, Pigweed, Palmer [1, 17]: 95
- Plant response rating, Pigweed, Palmer [1, 18]: 0
- Plant response rating, Goosegrass [2, 15]: 90
- Plant response rating, Goosegrass [2, 16]: 35
- Plant response rating, Goosegrass [2, 17]: 65
- Plant response rating, Goosegrass [2, 18]: 0
- Plant response rating, Morningglory [3, 15]: 75
- Plant response rating, Morningglory [3, 19]: 0
- Plant response rating, Morningglory [3, 16]: 10
- Plant response rating, Morningglory [3, 17]: 60
- Plant response rating, Morningglory [3, 18]: 0
- Plant response rating, Nightshade [4, 15]: 98
- Plant response rating, Nightshade [4, 19]: 0
- Plant response rating, Nightshade [4, 16]: 20
- Plant response rating, Nightshade [4, 17]: 75

SMILES: CCNC(=O)c1cc(CCCl)n(Cc2ccnc(C(F)(F)F)c2)n1 [Compound 179]
- Plant response rating, Pigweed, Palmer [1, 20]: 0
- Plant response rating, Pigweed, Palmer [1, 16]: 35
- Plant response rating, Pigweed, Palmer [1, 17]: 100
- Plant response rating, Pigweed, Palmer [1, 21]: 0
- Plant response rating, Goosegrass [2, 20]: 30
- Plant response rating, Goosegrass [2, 16]: 30
- Plant response rating, Goosegrass [2, 17]: 30
- Plant response rating, Goosegrass [2, 21]: 0
- Plant response rating, Morningglory [3, 20]: 40
- Plant response rating, Morningglory [3, 16]: 60
- Plant response rating, Morningglory [3, 17]: 70
- Plant response rating, Morningglory [3, 21]: 0
- Plant response rating, Nightshade [4, 20]: 65
- Plant response rating, Nightshade [4, 16]: 85
- Plant response rating, Nightshade [4, 17]: 100
- Plant response rating, Nightshade [4, 21]: 0

SMILES: CCc1cc(C(=O)NC(C)C)nn1Cc1ccnc(C(F)(F)F)c1 [Compound 103]
- Plant response rating, Blackgrass ([5]; 62 g ai/ha): 50
- Plant response rating, Blackgrass ([5]; 125 g ai/ha): 85
- Plant response rating, Blackgrass ([5]; 250 g ai/ha): 100
- Plant response rating, Foxtail, Green ([6]; 31 g ai/ha): 20
- Plant response rating, Foxtail, Green ([6]; 62 g ai/ha): 100
- Plant response rating, Foxtail, Green ([6]; 125 g ai/ha): 100
- Plant response rating, Foxtail, Green ([6]; 250 g ai/ha): 100
- Plant response rating, Wheat, Spring ([7]; 31 g ai/ha): 0
- Plant response rating, Wheat, Spring ([7]; 62 g ai/ha): 10
- Plant response rating, Wheat, Spring ([7]; 125 g ai/ha): 25
- Plant response rating, Wheat, Spring ([7]; 250 g ai/ha): 85
- Plant response rating, Wheat, Winter ([8]; 31 g ai/ha): 0
- Plant response rating, Wheat, Winter ([8]; 62 g ai/ha): 10
- Plant response rating, Wheat, Winter ([8]; 125 g ai/ha): 65
- Plant response rating, Wheat, Winter ([8]; 250 g ai/ha): 70
- Bluegrass plant response rating ([9]; Postemergence, 31 g ai/ha): 10
- Bluegrass plant response rating ([9]; Postemergence, 125 g ai/ha): 20
- Bluegrass plant response rating ([9]; Postemergence, 250 g ai/ha): 30
- Bluegrass plant response rating ([9]; postemergence, 62 g ai/ha): 25
- Kochia plant response rating ([10]; Postemergence, 31 g ai/ha): 60
- Kochia plant response rating ([10]; Postemergence, 125 g ai/ha): 75
- Kochia plant response rating ([10]; Postemergence, 250 g ai/ha): 75
- Kochia plant response rating ([10]; postemergence, 62 g ai/ha): 65
- Oilseed Rape plant response rating ([11]; Postemergence, 31 g ai/ha): 25
- Oilseed Rape plant response rating ([11]; Postemergence, 125 g ai/ha): 35
- Oilseed Rape plant response rating ([11]; Postemergence, 250 g ai/ha): 45
- Oilseed Rape plant response rating ([11]; postemergence, 62 g ai/ha): 35
- Speedwell plant response rating ([12]; Postemergence, 31 g ai/ha): 35
- Speedwell plant response rating ([12]; Postemergence, 125 g ai/ha): 55
- Speedwell plant response rating ([12]; Postemergence, 250 g ai/ha): 70
- Speedwell plant response rating ([12]; postemergence, 62 g ai/ha): 45
- Barley, Spring plant response rating ([13]; Postemergence, 31 g ai/ha): 0
- Barley, Spring plant response rating ([13]; Postemergence, 125 g ai/ha): 10
- Barley, Spring plant response rating ([13]; Postemergence, 250 g ai/ha): 15
- Barley, Spring plant response rating ([13]; postemergence, 62 g ai/ha): 0
- Barley, Winter plant response rating ([14]; Postemergence, 31 g ai/ha): 0
- Barley, Winter plant response rating ([14]; Postemergence, 125 g ai/ha): 5
- Barley, Winter plant response rating ([14]; Postemergence, 250 g ai/ha): 15
- Barley, Winter plant response rating ([14]; postemergence, 62 g ai/ha): 5
